According to BindingDB's records for doi:10.1021/acs.jmedchem.0c01882 (Reviral, 2021):

Assay: Inhibition of Respiratory syncytial virus A2 fusion protein expressed in HEK293T cells harboring GAL4-NF-kappaB assessed as reduction in cell-cell fusion by luciferase assay

**Q.** For `CC(C)CCn1c(CN2C(=O)C3(CC3)c3ccccc32)nc2cc(CN)ccc21`, which IC50 is on record?
**A.** 0.4 nM

**Q.** For `CC(C)CCn1c(CN2C(=O)C3(CC3)c3c(Cl)cccc32)nc2cc(CN)ccc21`, which IC50 is on record?
**A.** 11 nM

**Q.** For `CC(C)CCn1c(CN2C(=O)C3(CC3)c3cc(F)ccc32)nc2cc(CN)ccc21`, which IC50 is on record?
**A.** 0.7 nM

**Q.** For `CC(C)CCn1c(CN2C(=O)C3(CC3)c3cc(Cl)ccc32)nc2cc(CN)ccc21`, which IC50 is on record?
**A.** 4.5 nM

**Q.** Which IC50 does the source give for `CC(C)CCn1c(CN2C(=O)C3(CC3)c3ccc(F)cc32)nc2cc(CN)ccc21` here?
**A.** 0.5 nM

**Q.** With `CC(C)CCn1c(CN2C(=O)C3(CC3)c3ccc(Cl)cc32)nc2cc(CN)ccc21` as the compound, how does the IC50 read?
**A.** 1.2 nM

**Q.** With `CC(C)CCn1c(CN2C(=O)C3(CC3)c3cccc(Cl)c32)nc2cc(CN)ccc21` as the compound, how does the IC50 read?
**A.** 47 nM

**Q.** Which IC50 does the source give for `CC(C)CCn1c(CN2C(=O)C3(CC3)c3cccc(F)c32)nc2cc(CN)ccc21` here?
**A.** 1.3 nM

**Q.** With `CS(=O)(=O)CCCn1c(CN2C(=O)C3(CC3)c3ccc(F)cc32)nc2cc(CN)ccc21` as the compound, how does the IC50 read?
**A.** 2.6 nM

**Q.** Which IC50 does the source give for `NCc1ccc2c(c1)nc(CN1C(=O)C3(CC3)c3ccc(F)cc31)n2CCCCO` here?
**A.** 1.5 nM

**Q.** Which IC50 does the source give for `NCc1ccc2c(c1)nc(CN1C(=O)C3(CC3)c3cccc(F)c31)n2CCCC(F)(F)F` here?
**A.** 1 nM

**Q.** Which IC50 does the source give for `NCc1ccc2c(c1)nc(CN1C(=O)C3(CC3)c3ccc(F)cc31)n2C1CCC(O)CC1` (stereo not drawn) here?
**A.** 2.6 nM

**Q.** Which IC50 does the source give for `NCc1ccc2c(c1)nc(CN1C(=O)C3(CC3)c3ccc(F)cc31)n2C1CCOCC1` here?
**A.** 1.2 nM

**Q.** For `N=C(N)c1ccc2c(c1)nc(CN1C(=O)C3(CC3)c3ccc(F)cc31)n2CCCC(F)(F)F`, which IC50 is on record?
**A.** 3 nM

**Q.** With `CCNC(=N)c1ccc2c(c1)nc(CN1C(=O)C3(CC3)c3ccc(F)cc31)n2CCCC(F)(F)F` as the compound, how does the IC50 read?
**A.** 641 nM

**Q.** For `N=C(N)NCc1ccc2c(c1)nc(CN1C(=O)C3(CC3)c3ccc(F)cc31)n2CCCC(F)(F)F`, which IC50 is on record?
**A.** 183 nM

**Q.** Which IC50 does the source give for `NC(=O)c1ccc2c(c1)nc(CN1C(=O)C3(CC3)c3ccc(F)cc31)n2CCCC(F)(F)F` here?
**A.** 71 nM

**Q.** With `O=C(O)c1ccc2c(c1)nc(CN1C(=O)C3(CC3)c3ccc(F)cc31)n2CCCC(F)(F)F` as the compound, how does the IC50 read?
**A.** > 25000 nM

**Q.** With `CS(=O)(=O)c1ccc2c(c1)nc(CN1C(=O)C3(CC3)c3ccc(F)cc31)n2CCCC(F)(F)F` as the compound, how does the IC50 read?
**A.** 1070 nM

**Q.** With `CC(=O)NCc1ccc2c(c1)nc(CN1C(=O)C3(CC3)c3ccc(F)cc31)n2CCCC(F)(F)F` as the compound, how does the IC50 read?
**A.** 365 nM

**Q.** For `O=C1N(Cc2nc3ccccc3n2CCCC(F)(F)F)c2cc(F)ccc2C12CC2`, which IC50 is on record?
**A.** 37 nM

**Q.** With `O=C1N(Cc2nc3cc(Cl)ccc3n2CCCC(F)(F)F)c2cc(F)ccc2C12CC2` as the compound, how does the IC50 read?
**A.** 6.2 nM

**Q.** Which IC50 does the source give for `NCc1ccc2c(c1)nc(CN1C(=O)C3(CC3)c3ccc(F)cc31)n2CCCC(F)(F)F` [Sisunatovir] here?
**A.** 0.9 nM
